Assays:
[1] = system: patients with schizophrenia; conditions: patients continuing on therapy past the titration period; cited from earlier work
[2] = system: patients with bipolar I disorder; test: Phase III clinical study of iloperidone in acute manic and mixed episodes associated with bipolar I disorder; format: in vivo, adults
Experimental: In a Phase III clinical study of iloperidone as a treatment of acute manic and mixed episodes associated with bipolar I disorder, approximately 400 volunteers with a history of bipolar disorder and suffering from a current episode of mania are randomized to receive either iloperidone or placebo in a 1:1 ratio. Treatment efficacy is assessed using the Young Mania Rating Scale (YMRS), a known rating scale of clinical severity in the core symptoms of mania, as well as the Clinician Global Impression of Severity (CGI-S) and the Clinician Global Impression of Change (CGI-C).
YMRS assessments are made at baseline and during days 7, 10, 14, 21, and 28 using the following key: • 0=reports no decrease in sleep; • 1=sleeping less than normal amount by up to one hour; • 2=sleeping less than normal by more than one hour; • 3=reports decreased need for sleep; and • 4=denies need for sleep.
Patients receive four weeks of double-blind treatment comprising the administration of 24 mg/d iloperidone b.i.d. (12 mg twice daily), 12 mg/d b.i.d. (6 mg twice daily) for poor metabolizers, or placebo. CYP2D6 non-poor metabolizers are titrated to a clinical dose of 24 mg/day (12 mg twice daily) by administering 1 mg twice per day on day 1, 3 mg twice per day on day 2, 6 mg twice per day on day 3, 9 mg twice per day on day 4, and 12 mg twice per day on day 5 and each day thereafter. CYP2D6 poor metabolizers are titrated to 12 mg/day (6 mg twice daily) by administering 1 mg twice per day on day 1, 3 mg twice per day on day 2, and 6 mg twice per day on day 3 and each day thereafter.

[3] = system: adults with schizophrenia or bipolar I disorder; test: Clinical study of tolerability of faster iloperidone titration (orthostatic hypotension monitoring); format: in vivo; conditions: n=12
Experimental: A clinical study of adults (n=12, age 18-65, inclusive) with schizophrenia or bipolar I disorder is conducted to assess the tolerability of a faster iloperidone titration scheme. Patients are assigned to one of two cohorts based on CYP2D6 phenotype.
CYP2D6 non-poor metabolizers are titrated to a clinical dose of 24 mg/day (12 mg twice daily) by administering 1 mg twice per day on day 1, 3 mg twice per day on day 2, 6 mg twice per day on day 3, 9 mg twice per day on day 4, and 12 mg twice per day on day 5. CYP2D6 poor metabolizers are titrated to 12 mg/day (6 mg twice daily) by administering 1 mg twice per day on day 1, 3 mg twice per day on day 2, and 6 mg twice per day on day 3. In each case, the target dose of 24 mg/day or 12 mg/day is continued until day 7.
Patients are monitored for OH by measuring blood pressure after lying supine for three minutes and two minutes after standing. OH is defined as a fall in systolic blood pressure of 20 mmHg or more or a fall in diastolic blood pressure of 10 mmHg or more.
The results are compared to historical placebo data from a prior study of the FDA-approved titration regimen.

[4] = endpoint (day 28), ITT population, N = 198

SMILES: COc1cc(C(C)=O)ccc1OCCCN1CCC(c2noc3cc(F)ccc23)CC1 [Iloperidone, 1-[4-[3-[4-(6-fluoro-1,2-benzisoxazol-3-yl)-1-piperidinyl]propoxy]-3-methoxyphenyl]ethanone]
- Efficacy in treating schizophrenia relative to haloperidol and risperidone [1]: comparable to that of haloperidol and risperidone
- Sedation reported as treatment-emergent adverse event ([2]; N = 206): 5 (2.4) n (%)
- Somnolence reported as treatment-emergent adverse event ([2]; N = 206): 11 (5.3) n (%)
- Onset of statistically significant YMRS benefit versus placebo ([2]; YMRS assessment): as early as the end of week 2
- YMRS Total Score, Diff (iloperidone vs placebo) ([2]; day 28, ITT population, p-value 0.000008): −4.0
- CGI-C, Diff (iloperidone vs placebo) ([2]; day 28, ITT population, p-value 0.0002): −0.5
- CGI-S, Diff (iloperidone vs placebo) ([2]; day 28, ITT population, p-value 0.0005): −0.4
- MADRS Total Score, Diff (iloperidone vs placebo) ([2]; day 28, ITT population, p-value 0.1365): −0.9
- CGI-C [2, 4]: 2.3
- CGI-S, change from baseline [2, 4]: −1.5
- MADRS Total Score, change from baseline [2, 4]: −2.7
- YMRS Total Score, change from baseline ([2]; endpoint (day 28), ITT population, N = 198, 24 mg/d b.i.d. (12 mg/d for CYP2D6 poor metabolizers)): −14.0
- YMRS change associated with SNP rs62300864 (SHROOM3) ([2]; iloperidone-treated group (n=167), p 1.64 × 10^−6): 12.08 ± 2.43
- YMRS change associated with SNP rs55837573 (RELN) ([2]; iloperidone-treated group (n=167), p 2.48 × 10^−6): −4.61 ± 0.94
- YMRS change associated with SNP rs76876307 (FAT3) ([2]; iloperidone-treated group (n=167), p 5.27 × 10^−6): 15.44 ± 3.28
- YMRS change associated with SNP rs1118464 (NAV2) ([2]; iloperidone-treated group (n=167), p 6.98 × 10^−6): −4.15 ± 0.89
- YMRS sleep component, least squares mean change from baseline to day 28 ([2]; placebo −0.95, p=0.008): −1.26
- Tolerability of faster titration ([3]; compared to historical placebo data): well-tolerated
- Patients meeting orthostatic hypotension (OH) criteria ([3]; faster titration to 24 mg/day (12 mg/day poor metabolizers), to day 7, OH = fall in systolic ≥20 mmHg or diastolic ≥10 mmHg): Only one patient receiving iloperidone met the OH criteria
- Incidents of dizziness, syncope, or accidental trauma ([3]; faster titration, to day 7): no reported incidents of dizziness, syncope, or accidental trauma
- Other adverse events ([3]; faster titration, to day 7): no other adverse events
